This is an account of results in patent US20200085742A1, “NANOSCALE CARRIERS FOR THE DELIVERY OR CO-DELIVERY OF CHEMOTHERAPEUTICS, NUCLEIC ACIDS AND PHOTOSENSITIZERS” (The University of Chicago, priority 2013, published 2020).

Like-named read-outs stand apart in the source and are kept apart here.

Format in all cases: cell-based, human
The subject of test [1] is H460 cells. The experiment in a line: Cytotoxicity of cisplatin/GMP NCP, MTS assay.
Test [2] has as its system A2780 cells. The experiment in a line: Cytotoxicity of cisplatin/GMP NCP, MTS assay. As for the experimental part: (§1) The cytotoxicity of NCP particles carrying cisplatin, GMP, and thiol siRNAs targeting survivin, Bcl-2, and ERCC-1 were evaluated against human ovarian cancer cells A2780, A2780/CDDP, SKOV-3 and human non-small cell lung cancer cell H460 by MTS assay.
Test [3] has as its system A2780R cells. The experiment in a line: Cytotoxicity of cisplatin/GMP NCP, MTS assay. As for the experimental part: as §1
In test [4] the test system is SQ20B cells. Description: Time-dependent cellular uptake (ICP-MS, fluorimetry). Particulars: cisplatin dose 5 μM.
Protocol: The cellular uptake of NCP-1 particles in SQ20B cells was quantified by ICP-MS. […] The cells were centrifuged at 3,000 rpm for 5 min and the cell pellet was digested with 500 μL of concentrated nitric acid. […] Results were expressed as the amount of cisplatin (ng) per 10^5 cells.
Test [5] has as its system SKOV-3 cells. Description: Cytotoxicity of cisplatin/GMP NCP, MTS assay. A general note: Tetrazolium assays rely on reduction of a dye to a coloured formazan, in cell work by metabolically active cells.
In test [6] the test system is H460 cells. The experiment in a line: Cytotoxicity of Pten and Pten-NCP.
Test [7] has as its system SQ20B cells. The experiment in a line: Efflux of cisplatin and pyrolipid. Particulars: after 4-h uptake. As for the experimental part:
The efflux of cisplatin and pyrolipid in SQ20B cells was quantified as follows. SQ20B cells were seeded on 6-well plates at 5×10^5 cells/well and incubated for 24 h. […] After incubating for 4 h, the culture medium was discarded and the cells were washed with PBS three times. […] Results were expressed as the percent of the amount of cisplatin or pyrolipid being effluxed compared to the 4-h cellular uptake amount. In order to understand the cellular uptake dynamics of NCP-1-pyrolipid, the efflux of cisplatin and pyrolipid in different formulations was determined. […] The cisplatin or pyrolipid amounts detected in the culture medium were compared with the 4-h uptake amounts to give the percent efflux (Table 9).

Test [8] relates to A2780 cells. The experiment in a line: In vitro cytotoxicity, MTS assay. Particulars: after a 72 h incubation, read-out: Cisplatin IC50. As for the experimental part:
(§2) ES-2, OVCAR-3, SKOV-3, A2780, and A2780/CDDP cells were seeded at 5000 cells per well in 96-well plates and further cultured for 24 h. The culture media were replaced by 100 μL of fresh culture media containing 10% FBS. Cisplatin solution, NCP-1, NCP-1/siRNA containing pooled siRNAs, NCP-1/siRNA containing single siRNA, and Zn control/siRNA containing pooled siRNAs were added to the cells at different cisplatin or siRNA dose. Following incubation for 24 h, the cell viability was determined by (3-(4,5-dimethylthiazol-2-yl)-5-(3-carboxymethoxyphenyl)-2-(4-sulfophenyl)-2H-tetrazolium) (MTS) assay (Promega Corporation, Madison, Wis., United States of America) according to the manufacturer's instructions. […] The cytotoxicity of Zn control/siRNAs at the siRNA doses corresponding to cisplatin IC50 values was also evaluated.

Test [9] concerns A2780/CDDP cells. The experiment in a line: In vitro cytotoxicity, MTS assay. Particulars: after a 72 h incubation, read-out: Cisplatin IC50. How it is done: as §2
Test [10] relates to SKOV-3 cells. Description: In vitro cytotoxicity, MTS assay. The conditions noted are these: after a 72 h incubation, read-out: Cisplatin IC50. How it is done: as §2
For test [11], the system named is ES-2 cells. Description: In vitro cytotoxicity, MTS assay. The conditions noted are these: after a 72 h incubation, read-out: Cisplatin IC50. As for the experimental part: as §2
Test [12] relates to OVCAR-3 cells. The experiment in a line: In vitro cytotoxicity, MTS assay. Particulars: after a 72 h incubation, read-out: Cisplatin IC50. As for the experimental part:
as §2

Test [13] has as its system SKOV-3 cells. The experiment in a line: Cytotoxicity of UiO formulations, MTS assay. The conditions noted are these: read-out: cisplatin IC50. How it is done:
To examine whether the efficient and simultaneous knockdown of three MDR-relevant genes including survivin, Bcl-2, and P-gp could effectively reverse the cisplatin resistance in ovarian cancer cells, the cytotoxicity of free cisplatin, UiO-Cis, and siRNA/UiO-Cis was assessed by 3-(4,5-dimethylthiazol-2-yl)-5-(3-carboxymethoxy-phenyl)-2-(4-sulfophenyl)-2H-tetrazolium (MTS) assay.

For test [14], the system named is SQ20B cells. Description: Flow cytometry, apoptosis and necrosis (Annexin V/PI). As for the experimental part:
SQ20B cells were seeded at 1×10^6 cells per well in 6-well plates and further cultured for 24 h. […] Cells incubated with PBS served as control. After a 24 h […] incubation, the cells were irradiated with light emitting diode (LED) light (670 nm) at 60 mW/cm^2 for 15 min (equals to 54 J/cm^2). Following a further incubation of 48 h, the floating and adherent cells were collected and stained with Alexa Fluor 488 Annexin V/dead cell apoptosis kit with Alexa Fluor 488 annexin V and PI (Invitrogen, Carlsbad, Calif., United States of America) according to manufacturer's instructions. The apoptosis and necrosis was examined on a flow cytometer (LSRII Blue, Becton, Dickinson, and Company, Franklin Lakes, N.J., United States of America).

For test [15], the system named is cisplatin-resistant ovarian cancer cells. The experiment in a line: DNA ladder and Annexin V conjugate staining (UiO). How it is done: Annexin V conjugate staining provided further evidence to the apoptosis induced by siRNA/UiO-Cis. siRNA loaded in the NMOFs were efficiently internalized into the cytoplasm after a 24-h incubation to trigger MDR-relevant gene silencing.

Test [16] relates to JSQ3 cells. The experiment in a line: Cytotoxicity with or without irradiation, MTS assay. Particulars: read-out: Cisplatin IC50. How it is done:
(§3) The cells were seeded on 96-well plates at 2500 cells/well. […] After a 24-h incubation, the cells were irradiated with LED light (670 nm) at 60 mW/cm^2 for 15 min (equals to 54 J/cm^2). The cells without irradiation treatment served as controls. The cells were further incubated for 48 h. The cell viability was detected by (3-(4,5-dimethylthiazol-2-yl)-5-(3-carboxymethoxyphenyl)-2-(4-sulfophenyl)-2H-tetrazolium) (MTS) assay (Promega, Madison, Wis., United States of America) and the IC50 values were calculated accordingly. […] These findings were further supported by the flow cytometry results (Table 11).

The test system of test [17] is SCC61 cells. The test is described as above. Particulars: read-out: Cisplatin IC50. As for the experimental part: as §3
For test [18], the system named is SQ20B cells. Described as above. Particulars: read-out: Cisplatin IC50. As for the experimental part: as §3
The test system of test [19] is HNSCC135 cells. The test is described as above. Particulars: read-out: Cisplatin IC50. How it is done: as §3
The mark [20] stands for this setting: read-out: IC50 as GMP concentration (numbers in parenthesis).

On to `N.N.[Cl][Pt][Cl]` [Free cisplatin, cisplatin], for which the IC50 was found to be 4.6 ± 0.6 µM in test [1] (read-out: Cisplatin IC50); 0.764 ± 0.183 µM in test [2]; 13.6 ± 3.2 µM in test [3] (read-out: Cisplatin IC50); 4.6 ± 0.7 µM in [5] (read-out: Cisplatin IC50); 4.8 µM in [6]; 4.4 ± 1 µM in test [8]. Moreover, the IC50 turned out to be 24 ± 3.1 µM in test [9]; 59.5 ± 1.2 µM in [10]; 37.6 ± 1.9 µM in [11]; 44.4 ± 3.2 µM in test [12]; 48.5 ± 4.3 µM in test [13]; 11.3 ± 1.2 µM in test [16] (irradiation No). Also, the IC50 is 13.3 ± 2.03 µM in [16] (irradiation Yes); 3.46 ± 0.08 µM in [17] (irradiation No); 3.69 ± 0.28 µM in test [17] (irradiation Yes); 3.92 ± 0.15 µM in test [18] (irradiation No); 4.18 ± 0.11 µM in [18] (irradiation Yes); 3.37 ± 0.73 µM in [19] (irradiation No). In addition, the IC50 in test [19] (irradiation Yes (670 nm, 54 J/cm^2)) was 2.65 ± 0.13 µM. In addition, the Cisplatin uptake turned out to be 51.7 ± 4.5 ng/10^5 cells in [4] (1 h), 43.5 ± 1.4 ng/10^5 cells in test [4] (2 h), 38.1 ± 0.8 ng/10^5 cells in test [4] (4 h) and 38.5 ± 1.3 ng/10^5 cells in test [4] (24 h). The Cisplatin efflux in test [7] (1 h) worked out at 12.0 ± 1.5%; in test [7] (2 h), 13.5 ± 0.2%; in test [7] (4 h), 18.2 ± 5.1%; in test [7] (24 h), 20.0 ± 5.4%; in test [7] (24 h, listed as free cisplatin), 20.0%. The Necrosis % in test [14] (w/irradiation) and in test [14] (w/o irradiation) was 0.2% throughout. Further, the Apoptosis % in [14] (w/irradiation, cisplatin 5 μM or equivalent pyrolipid) turned out to be 38.1%; in test [14] (w/o irradiation), 37.9%. The “DNA fragmentation (DNA ladder)” value in test [15] is “No DNA fragmentation was detectable”.

On to gemcitabine monophosphate [GMP], for which the figures for the IC50 in [1] (setting [20]), in [3] (setting [20]) and in [5] (setting [20]) were 3.3 µM, 0.12 µM and 2.8 µM, respectively.
